Laboratory results taken from a melting point compilation (Tetko et al.).

For `CC(=O)c1cn(C)nc1C`, the melting point was 72 to 74 °C.
`NC1(C(=O)O)CCS(=O)(=O)CC1` showed a melting point of 294 to 296 °C.
Work on `Nc1ccc(S(=O)(=O)Nc2ccc(F)c(Cl)c2)cc1` yielded a melting point of 173 to 175 °C.
With `CS(=O)(=O)Nc1ccc(S(=O)(=O)Cl)cc1F` the melting point was 164 to 166 °C.
For `CN(C1CCCCC1)S(=O)(=O)c1cccc(C(=O)O)c1`, the melting point was 145 to 147 °C.
With `Cc1ccc2cccc(C(=O)O)c2n1` the melting point was 152 to 154 °C.
For `CC(C)(C)c1nn(-c2ccccc2)cc1C(=O)O`, the melting point was 212 to 214 °C.
`O=S(=O)(Nc1cc(F)cc(F)c1)c1ccc(Cl)nc1` showed a melting point of 199 to 201 °C.
`CC1CCN(c2ccc(NC(=O)CCC(=O)O)cc2)CC1` showed a melting point of 174 to 176 °C.
With `CSCCC(NC(=O)c1cccc(C)c1)C(=O)O` (configuration not stated) the melting point was 115 to 117 °C.
In the case of `Cc1nc(-c2ccc(Cl)cc2)sc1C(C)O` (configuration not stated), the melting point is reported as 119 to 121 °C.
Compound `Cn1nc(Br)c2c(N)ncnc21` has a melting point of 228 to 230 °C.
Compound `CC(C(=O)O)n1c(S)nc2ccccc2c1=O` (configuration not stated) has a melting point of 238 to 240 °C.
For `O=C(CCl)N1CCCC1`, the melting point was 56 to 58 °C.
`O=C(Nc1ccccc1)c1ccc(O)cc1` showed a melting point of 195 to 197 °C.
With `CC(Cl)C(=O)Nc1cccc(Cl)c1Cl` (configuration not stated) the melting point was 96 to 98 °C.
Compound `O=S1(=O)CCNC(c2ccccc2)C1` (configuration not stated) has a melting point of 124 to 126 °C.
For `NC(=O)NCc1ccc(S(N)(=O)=O)cc1`, the melting point was 175 to 177 °C.
`Nc1nc2c(s1)COCC2` showed a melting point of 144 to 146 °C.
Work on `COc1ccc(C=O)cc1OCC(C)C` yielded a melting point of 40 to 42 °C.
Compound `CCNS(=O)(=O)c1cccc(C(=O)O)c1` has a melting point of 199 to 201 °C.
Compound `CNC(C)c1ccc(-n2cncn2)cc1` (configuration not stated) has a melting point of 44 to 48 °C.
`CN1C(=O)CC(C(=O)O)C1c1cccs1` (configuration not stated) showed a melting point of 139 to 141 °C.
`CC(Cl)C(=O)NC(C)(C)C` (configuration not stated) gave a melting point of 84 to 86 °C.
With `O=C(O)Cc1ccc2c(c1)CCO2` the melting point was 102 to 104 °C.
`CCn1c(CCl)nc2c(F)cccc21` gave a melting point of 115 to 117 °C.
In the case of `O=C1CC(c2ccccc2)C(=O)N1` (configuration not stated), the melting point is reported as 72 to 74 °C.
Compound `Cc1ccc(C(F)(F)C(=O)O)cc1` has a melting point of 39 to 41 °C.
`CCCOc1ccc(C(=O)NN)cc1` gave a melting point of 88 to 90 °C.
With `Cn1nc(-c2ccccc2)nc1CC#N` the melting point was 116 to 118 °C.
For `Nc1ccc(-c2cn3ccsc3n2)cc1`, the melting point was 199 to 201 °C.
`NNc1ccc(S(=O)(=O)NCc2ccco2)cn1` gave a melting point of 144 to 146 °C.
In the case of `Cc1cc(=O)c(C(=O)O)nn1-c1ccccc1C(F)(F)F`, the melting point is reported as 145 to 147 °C.
Compound `CCN1CCCC1CNS(=O)(=O)c1ccc(N)cc1` (configuration not stated) has a melting point of 101 to 103 °C.
In the case of `CC(=O)NC(Cc1c[nH]cn1)C(N)=O` (configuration not stated), the melting point is reported as 241 to 243 °C.
Compound `Nc1ncc(Cl)s1` has a melting point of 90 to 92 °C.
Compound `CC(C)(C)OC(=O)N1CCCc2cc(N)ccc21` has a melting point of 55 to 57 °C.
In the case of `Clc1cc(CBr)c2ncccc2c1`, the melting point is reported as 116 to 118 °C.
In the case of `CC(=O)N1CCCCC1CC(=O)O` (configuration not stated), the melting point is reported as 112 to 114 °C.
`COCCn1ncc2ccc(N)cc21` gave a melting point of 86 to 88 °C.
`Cn1c(N)c(C(=O)CC#N)c(=O)n(C)c1=O` showed a melting point of 260 to 262 °C.
Work on `O=C(O)CNS(=O)(=O)C=Cc1ccccc1` yielded a melting point of 80 to 82 °C.
In the case of `COC(=O)Cn1cnc2cc(F)ccc2c1=O`, the melting point is reported as 144 to 146 °C.
`Cn1nnnc1-c1cccc(N)c1` gave a melting point of 147 to 149 °C.
Work on `O=C1CC2(Cc3ccccc3C2)C(=O)O1` yielded a melting point of 164 to 166 °C.
In the case of `CC(C)c1nc(CC(=O)O)cs1`, the melting point is reported as 87 to 89 °C.
Compound `Nc1ccccc1C(=O)Nc1ccc(Cl)cn1` has a melting point of 158 to 160 °C.
`CC(C)(C)Nc1ccc(C(=O)O)cc1S(=O)(=O)NC(C)(C)C` showed a melting point of 243 to 245 °C.
For `Sc1nnc(-c2ccco2)n1-c1ccccc1`, the melting point was 121 to 123 °C.
In the case of `Cc1ccc(SCC(=O)Nc2ccccc2C)c(N)c1`, the melting point is reported as 115 to 117 °C.
With `CC(C)c1ccc(Cn2nccc2N)cc1` the melting point was less than 17 °C.
For `NC(=O)Nc1ccc([N+](=O)[O-])cc1`, the melting point was 224 to 226 °C.
